Data as given in article PMC9977398, “Next-generation membrane-active glycopeptide antibiotics that also inhibit bacterial cell division” (Chemical Science, 2023).

Key:
[1] = test system: MRSA; test: Resistance study, serial passaging at sub-MIC; format: cell-based, S. aureus; conditions: after 20 passages at sub-MIC
Protocol: Having observed the multiple mechanisms of VanQAmC10, the potential as a preclinical candidate was examined. […] The frequency of resistance for both vancomycin and VanQAmC10 against MRSA was <10^−8 indicating the absence of spontaneous mutants. […]
from 10 μg/mL. The bacteria with compounds and untreated control were incubated for 18 h at 37 ̊C under shaking and OD600 was measured.
Microscopy of ΔamiAC MG1655 E. coli
ΔamiAC MG1655 was cultured overnight in LB media at 37 ̊C. Cells were then inoculated in LB media at 1:100 dilution ratio and made to grow till O.D600 0.1. The cells were then treated with 4 μg/mL concentration of vancomycin and VanQAmC10 or left untreated for 2 h. […]
MRSA ATCC 33591 was grown to mid-log phase at 37 °C. […] The viable bacteria were then counted after 48 h incubation at 37 °C. […]
Antagonization of antibacterial activity of AAV-qC10 was determined by addition of 500 μM N,N՛-diacetyl–L-Lys–D-Ala–D-Ala or 100 μg/mL of lipoteichoic acid to serial dilutions of the test compound. The MIC was then determined against MRSA by measuring the OD600 18-24 […]
Vancomycin was chosen as control antibiotic for MRSA. The initial MIC values of VanQAmC10, vancomycin were determined against the respective bacteria. […]
The doses for administration, were given modified OECD guidelines. LD50 was determined using Spearman-Karber method. […]

[2] = test system: B. subtilis 1981 GFP-MinD; test: GFP-MinD localization; format: cell-based; conditions: treatment at the PEC, 15 min
Description: MinD is a peripheral membrane protein that localizes at the cell poles and is part of the cell division regulation machinery. It has been reported that treatment with membrane-depolarizing agents like valinomycin results in the delocalization of the protein which appears in irregularly distributed spots throughout the cell. Since the compounds depolarise the bacterial membrane, their effect on the localization of the GFP-tagged MinD protein of B. subtilis was investigated. […]
resuspended in prewarmed BMM media. 1:1 BAC light dye was then added to the bacterial suspension and incubated for 5 minutes. The fluorescence in the GFP and Texas red channels was then observed under the microscope. The experiments were performed three times independently and the images are representative of results from three independent experiments.
B. subtilis 1981 GFP-MinD was cultured overnight in BMM.8 Cells were then inoculated in xylose containing BMM instead of glucose to an OD500 of 0.1 to induce expression of the GFP-MinD fusion protein. […]
About 6 μl of sample was immobilized on 1% agarose pad . DIC and fluorescence images were obtained at different time intervals using Nikon Eclipse Ti Microscope equipped with Nikon DS-U3 camera through Plan Apo 100×/1.40 oil objective. […]

| SMILES | increase in MIC (resistance development) [1] | localization of GFP-MinD [2] |
| --- | --- | --- |
| CN[C@H](CC(C)C)C(=O)N[C@H]1C(=O)N[C@@H](CC(N)=O)C(=O)N[C@H]2C(=O)N[C@H]3C(=O)N[C@H](C(=O)N[C@H](C(=O)O)c4cc(O)cc(O)c4-c4cc3ccc4O)[C@H](O)c3ccc(c(Cl)c3)Oc3cc2cc(c3O[C@@H]2O[C@H](CO)[C@@H](O)[C@H](O)[C@H]2O[C@H]2C[C@](C)(N)[C@H](O)[C@H](C)O2)Oc2ccc(cc2Cl)[C@H]1O [Vancomycin, reference compound] | 2 fold |  |
| CNC(CC(C)C)C(=O)NC1C(=O)NC(CC(N)=O)C(=O)NC2C(=O)NC3C(=O)NC(C(=O)NC(C(=O)NCCC[N+](C)(C)Cc4ccc(-c5ccccc5)cc4)c4cc(O)cc(O)c4-c4cc3ccc4O)C(O)c3ccc(c(Cl)c3)Oc3cc2cc(c3OC2OC(CO)C(O)C(O)C2OC2CC(C)(N)C(O)C(C)O2)Oc2ccc(cc2Cl)C1O (stereo not shown) [VanQbiph (4)] |  | irregular distribution of GFP-labelled MinD across the cells |
| CCCCCCCCCCNC(=O)C[N+](C)(C)CCCNC(=O)C1NC(=O)C2NC(=O)C(NC(=O)C3NC(=O)C(CC(N)=O)NC(=O)C(NC(=O)C(CC(C)C)NC)C(O)c4ccc(c(Cl)c4)Oc4cc3cc(c4OC3OC(CO)C(O)C(O)C3OC3CC(C)(N)C(O)C(C)O3)Oc3ccc(cc3Cl)C2O)c2ccc(O)c(c2)-c2c(O)cc(O)cc21 (stereo not shown) [VanQAmC10 (8)] | lack of resistance development | irregular distribution of GFP-labelled MinD across the cells |
